# “Also recorded” adds a separate entry of the source.
# Key:
# [1] = test system: HDAC (HeLa nuclear extract); assay: HDAC Inhibitor Drug Screening Kit (fluorometric, Biovision K340-100); assay type: biochemical; settings: for Inhibition at 10 μM (%) / Inhibition at 500 μM (%): mean of 3 independent measurements, SD <10%; for IC50: HDAC inhibitory activity
# Method: The N^1-phenylpyrazole derivatives 1a (the isomer with the connection unit at C5) and 1b (the isomer with the connection unit at C3) were evaluated for their ability to inhibit the HDAC activity to have a preliminary insight about the SAR of this set of compounds. […] Therefore, the development of the other two derivatives of this class, i.e., the p-CN-phenyl derivative 2 and the p-Br-phenyl derivative 3, was focused on the single isomer C5-substituted. As for 1a, the detected inhibitory activity of 2 and 3 was in the low micromolar range (6.3 µM and 1.6 µM, respectively; Table 1).
# [2] = test system: neuroblastoma SH-SY5Y tumor cell line; assay: MTT antiproliferative assay; assay type: cell-based, Human; settings: SH-SY5Y cells; for inhibition at 25 µM / IC50: Homo sapiens; for inhibition at 25 µM: after 72 h, read-out: inhibition of cell proliferation; for inhibition at 25 µM / antiproliferative effect (in words): MTT; for IC50: MTT test; for antiproliferative effect (in words): 1–50 µM, 24, 48 and 72 h
# Method: Human neuroblastoma cell line SH-SY5Y was originally obtained from ATCC (Rockville, MD, USA). Cells were cultured as previously reported. Briefly, we employed RPMI 1640 medium with 10% heat-inactivated fetal bovine serum (FBS), 2 mM L-glutamine, 1 mM sodium pyruvate, 100 IU/mL penicillin and 100 μg/mL streptomycin at 37 °C in a humidified atmosphere with 5% CO2. All the reagents for cell culture were from Carlo Erba (Milan, Italy). For biological investigations, compounds 1a, 2 and 3 were solubilized in dimethyl sulfoxide (DMSO) to obtain stock solutions at a final concentration of 50 mM that were stored at −20 °C. Just prior use, aliquots were diluted in medium to the final concentrations ranging from 1 to 50 μM.
# The abovementioned compounds were evaluated by the MTT assay to assess their anti-proliferative activity, as reported by Ferlazzo et al. Cells were seeded at a density of 5 × 10^3 cell/well in 96-well plates and incubated overnight at 37 °C. In treated cells, the medium was then replaced with a fresh one in which the compounds were diluted from 1 to 50 µM. Untreated cells together with ones exposed to DMSO 0.1% served as control and solvent control, respectively. After incubation for 24, 48, and 72 h, plates were firstly centrifuged, then the medium was removed, and a solution of 3-(4,5-dimethylthiazole-2-yl)-2,5-diphenyltetrazolium bromide (MTT; Sigma-Aldrich, Milan, Italy) at a concentration of 0.5 mg/mL in fresh medium (w/o phenol red) was added. Plates were incubated for further 4h. Afterward, MTT solution was removed, and the obtained formazan crystals were solubilized in 100 µL of a lysis buffer consisting of HCl/isopropanol 0.1 N and regularly shaken. Optical density was measured employing a microplate reader (iMark™, Bio-Rad Laboratories, Milan, Italy) at 595 nm. All experiments were carried out in eight replicates for three times. Results are expressed as the percentage of viable cells compared to untreated cells.
Compound,IC50 [1] [µM],IC50 [2] [µM],Inhibition at 10 μM (%) [1] [%],Inhibition at 500 μM (%) [1] [%],inhibition at 25 µM [2] [%],antiproliferative effect (in words) [2],antiproliferative effect (in words) ([2]; listed as 2a)
"O=C(/C=C/c1ccc(NC(=O)c2cc(-c3ccccc3)[nH]n2)cc1)NO [Compound 4, (E)-N-(4-(3-(hydroxyamino)-3-oxoprop-1-enyl)phenyl)-5-phenyl-1H-pyrazole-3-carboxamide]",155 ± 2.8,,13,71,,,
"CC(/C=C/C(=O)NO)=C\[C@@H](C)C(=O)c1ccc(N(C)C)cc1 [TSA, Trichostatin A, reference compound]",3.4 ± 0.2,,,,,,
"O=C(/C=C/c1ccc(NC(=O)c2cc(-c3ccc(Br)cc3)[nH]n2)cc1)NO [Compound 5, (E)-5-(4-bromophenyl)-N-(4-(3-(hydroxyamino)-3-oxoprop-1-enyl)phenyl)-1H-pyrazole-3-carboxamide]",> 500,,,15,,,
"Cc1cc(C(=O)Nc2ccc(/C=C/C(=O)NO)cc2)n(-c2ccc(Br)cc2)n1 [Compound 3, (E)-1-(4-bromophenyl)-N-(4-(3-(hydroxyamino)-3-oxoprop-1-enyl)phenyl)-3-methyl-1H-pyrazole-5-carboxamide]",1.6 ± 0.2,5.61,74,88,> 75,,
"Cc1cc(C(=O)Nc2ccc(/C=C/C(=O)NO)cc2)n(-c2ccc(C#N)cc2)n1 [Compound 2, (E)-1-(4-cyanophenyl)-N-(4-(3-(hydroxyamino)-3-oxoprop-1-enyl)phenyl)-3-methyl-1H-pyrazole-5-carboxamide]",6.3 ± 0.3,,51,88,,inactive,None of the tested concentrations; also recorded: No antiproliferative effect
"O=C(/C=C/c1ccc(NC(=O)c2n[nH]c3c2Cc2ccccc2-3)cc1)NO [Compound 6, (E)-N-(4-(3-(hydroxyamino)-3-oxoprop-1-enyl)phenyl)-1,4-dihydroindeno[1,2-c]pyrazole-3-carboxamide]",46.5 ± 1.5,,29,87,,,

# The next lines start with results.
IC50 [1] [µM],IC50 [2] [µM],Compound,Inhibition at 10 μM (%) [1] [%],Inhibition at 500 μM (%) [1] [%],inhibition at 25 µM [2] [%],antiproliferative effect (in words) [2],antiproliferative effect (in words) ([2]; listed as 2a)
> 500,,"Cc1cc(C(=O)Nc2ccc(/C=C/C(=O)NO)cc2)nn1-c1ccccc1 [Compound 1b, (E)-N-(4-(3-(hydroxyamino)-3-oxoprop-1-enyl)phenyl)-5-methyl-1-phenyl-1H-pyrazole-3-carboxamide]",6,30,,,
7.1 ± 0.5,5.34,"Cc1cc(C(=O)Nc2ccc(/C=C/C(=O)NO)cc2)n(-c2ccccc2)n1 [Compound 1a, (E)-N-(4-(3-(hydroxyamino)-3-oxoprop-1-enyl)phenyl)-3-methyl-1-phenyl-1H-pyrazole-5-carboxamide]",,86,> 75,,

# From PMC6412695, “Hydroxamic Acid-Based Histone Deacetylase (HDAC) Inhibitors Bearing a Pyrazole Scaffold and a Cinnamoyl Linker” (International Journal of Molecular Sciences, 2019)
